Paper PMC5957473, “Small Molecule Neuropilin-1 Antagonists Combine Antiangiogenic and Antitumor Activity with Immune Modulation through Reduction of Transforming Growth Factor Beta (TGFβ) Production in Regulatory T-Cells” (Journal of Medicinal Chemistry, 2018)
Each block holds one compound with its values, some of them ahead of it.

Columns and labels:
[1] = target: T1, NRP1-b1 (Homo sapiens, UniProt O14786); experiment: SPR equilibrium binding assay (Biacore 4000), immobilised NRP1-b1; details: equilibrium (steady-state) binding, 25 °C, average ± SD of high and low density surfaces
T1 construct: His6 (TEV protease-cleavable) (N); made in house; host or cells: Escherichia coli Rosetta Gami 2 (DE3) pLysS
T1 sequence (O14786 273-427): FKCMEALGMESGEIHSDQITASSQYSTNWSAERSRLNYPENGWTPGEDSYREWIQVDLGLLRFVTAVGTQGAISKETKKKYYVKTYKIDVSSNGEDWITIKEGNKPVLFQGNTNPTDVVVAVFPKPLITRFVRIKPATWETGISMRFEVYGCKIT
Procedure: All the compounds were evaluated using an SPR binding assay (Biacore) where recombinant NRP1-b1b2 protein was immobilized on a dextran coated chip.[23] Selected compounds were then evaluated in competitive binding assay systems using biotinylated VEGF. […] This encouraging result prompted us to conduct a more focused structure–activity study around the 10a structure.
Surface plasmon resonance experiments were performed using a Biacore 4000 instrument at 25 °C. Sensor chips, buffer stock solutions, and immobilization reagents were from GE Healthcare. Recombinant human NRP1-b1 was as above. Other reagents were obtained from Sigma. Immobilization: PBS (containing 0.05% surfactant P20) was used as the running buffer. The four flow cells were treated in the same way to optimize throughput. In summary, using a CM5 chip spots 1 and 2 were activated with the coupling reagents EDC and NHS for 10 min. NRP1-b1 at a concentration of 20 μg/mL in 10 mM sodium acetate pH 5 was injected onto the surface for 10 and 5 min in spots 1 and 2, respectively, to generate surfaces with high and low density. The immobilization levels ranged from 2302 to 1823 RU on spot 1 and from 948 to 1112 RU in spot 2. The unmodified spot 3 was used as a reference. […] Dose–responses were obtained using a 2-fold sample dilution from 16 μM to 31 nM, using an injection time of 60 s. Surface regeneration between injections was not necessary, but a wash step with 1 M NaCl was included after injection of the highest concentration sample for each compound. Data processing: Binding curves were corrected for variations in DMSO concentration and normalized by molecular weight. Binding results to high and low-density surfaces were processed independently and the average ± SD is presented. KDs reported are derived from steady-state binding responses and therefore correspond to the equilibrium binding affinity of the compounds.

[2] = system: NRP1; set-up: method as in PMID 20151671; details: read-out: IC50, inhibition of bt-VEGF-A binding to NRP1; cited from earlier work
[3] = system: HUVEC cells; set-up: method as in PMID 20151671; details: 100 μM in combination with VEGF-A; cited from earlier work
[4] = IV pharmacokinetics in mice; format: in vivo; details: for half-life: 2 mg/kg
Procedure: To test compound drug-like properties, selected compounds with low IC50 were further tested for pharmacokinetics (PK) profile. First, 6–8 week-old BABL/c female mice were used, then 2 mg/kg of compounds was formulated in 7.5% DMSO and 92.5% solution and intravenously dosed from the tail vein as a bolus. Blood samples were collected by cardiac puncture at 5, 15, 30, 60, 180, and 240 min post dosing. Plasma samples were prepared by centrifugation at 7000 rpm for 5 min, and supernatants were collected, immediately snap-frozen on dry ice, and stored at −20C. Samples were analyzed by liquid chromatography–tandem mass spectrometry using electrospray ionization and data was analyzed by WinNonlin software.

[5] = system: Nrp1+ Tregs; experiment: TGFβ production by Nrp1+ Tregs exposed to glioma conditioned media (ELISA); format: cell-based, mice; details: 500 nM pretreatment 2 h, GCM 12 h
[6] = system: HUVEC cells; experiment: Transwell migration (chemotaxis) of HUVEC cells toward VEGF-A; format: cell-based, human; details: 30 μM, no VEGF-A
[7] = system: A375P (malignant melanoma) cells; experiment: 3D spheroid invasion assay; format: cell-based
[8] = target: T2, DU145/cells.Ad.NRP1 (Homo sapiens, UniProt O14786); experiment: Cell-based competition binding with bt-VEGF in DU145 cells infected with adenovirus expressing WT NRP1; details: HS value in brackets beside IC50
T2 construct: expressed in transfected cells; host or cells: DU145 prostate cancer cells (ATCC) infected with adenovirus

[9] = target: T3, NRP2 (Homo sapiens, UniProt O60462); experiment: SPR single-cycle binding to NRP2 (Biacore T200); details: 62.5 – 1000 nM, NRP2 His tagged and NRP2-Fc chimera
T3 sequence (O60462 23-802 limits assumed): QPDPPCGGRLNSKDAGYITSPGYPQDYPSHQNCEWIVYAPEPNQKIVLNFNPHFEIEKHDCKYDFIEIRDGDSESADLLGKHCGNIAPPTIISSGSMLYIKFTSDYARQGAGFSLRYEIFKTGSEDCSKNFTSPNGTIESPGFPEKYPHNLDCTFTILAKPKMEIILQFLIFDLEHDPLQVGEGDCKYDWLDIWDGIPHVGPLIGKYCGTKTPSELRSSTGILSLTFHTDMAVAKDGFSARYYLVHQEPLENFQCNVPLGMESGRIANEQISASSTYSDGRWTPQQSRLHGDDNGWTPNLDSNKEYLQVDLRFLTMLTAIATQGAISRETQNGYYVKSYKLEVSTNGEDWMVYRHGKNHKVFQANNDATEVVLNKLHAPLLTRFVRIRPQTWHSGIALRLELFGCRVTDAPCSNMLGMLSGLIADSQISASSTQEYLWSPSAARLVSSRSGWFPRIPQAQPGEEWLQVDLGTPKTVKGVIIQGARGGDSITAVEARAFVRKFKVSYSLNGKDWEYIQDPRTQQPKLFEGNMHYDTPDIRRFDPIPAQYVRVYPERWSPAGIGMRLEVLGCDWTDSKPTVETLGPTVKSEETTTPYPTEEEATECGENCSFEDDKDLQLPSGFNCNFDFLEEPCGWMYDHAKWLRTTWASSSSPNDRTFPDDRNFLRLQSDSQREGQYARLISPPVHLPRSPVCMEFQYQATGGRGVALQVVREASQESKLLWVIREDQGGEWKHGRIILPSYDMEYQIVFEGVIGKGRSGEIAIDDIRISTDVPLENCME

[10] = system: HUVEC cells; experiment: Wound healing scratch assay; format: cell-based, human; details: 30 μM + VEGF-A 25 ng/mL, 1% EGM
[11] = female, BABL/c (so in the source); BALB/c), mouse, plasma, IV bolus 2 mg/kg

T2 sequence (O14786 22-923): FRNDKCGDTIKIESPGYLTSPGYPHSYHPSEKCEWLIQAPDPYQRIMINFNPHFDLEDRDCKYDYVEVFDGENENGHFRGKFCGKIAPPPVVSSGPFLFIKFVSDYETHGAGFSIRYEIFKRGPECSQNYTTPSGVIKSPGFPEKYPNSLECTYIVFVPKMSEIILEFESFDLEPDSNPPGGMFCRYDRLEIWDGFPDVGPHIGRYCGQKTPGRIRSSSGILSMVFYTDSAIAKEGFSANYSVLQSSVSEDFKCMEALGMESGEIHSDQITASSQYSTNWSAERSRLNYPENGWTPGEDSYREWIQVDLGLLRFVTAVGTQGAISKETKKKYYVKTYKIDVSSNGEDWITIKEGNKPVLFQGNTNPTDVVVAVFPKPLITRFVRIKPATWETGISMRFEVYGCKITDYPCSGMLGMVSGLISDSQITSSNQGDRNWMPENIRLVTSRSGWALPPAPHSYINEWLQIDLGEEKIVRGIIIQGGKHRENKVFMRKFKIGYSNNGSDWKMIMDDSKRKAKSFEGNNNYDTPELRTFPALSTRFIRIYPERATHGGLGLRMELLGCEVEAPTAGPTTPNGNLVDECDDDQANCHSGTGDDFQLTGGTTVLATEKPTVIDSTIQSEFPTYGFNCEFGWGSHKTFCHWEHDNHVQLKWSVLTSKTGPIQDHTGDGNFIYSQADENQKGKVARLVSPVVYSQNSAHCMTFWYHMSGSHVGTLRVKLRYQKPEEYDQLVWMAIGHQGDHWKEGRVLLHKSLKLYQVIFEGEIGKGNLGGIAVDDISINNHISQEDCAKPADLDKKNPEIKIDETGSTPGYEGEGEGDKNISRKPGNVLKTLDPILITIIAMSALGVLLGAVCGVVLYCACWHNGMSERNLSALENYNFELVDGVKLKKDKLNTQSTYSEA

Structure (SMILES): N=C(N)NCCC[C@H](NC(=O)c1sccc1NS(=O)(=O)c1cc(-c2ccccc2CNCc2ncc[nH]2)cc2c1OCC2)C(=O)O [9b, N2-(3-((5-(2-((((1H-Imidazol-2-yl)methyl)amino)methyl)phenyl)-2,3-dihydrobenzofuran)-7-sulfonamido)thiophene-2-carbonyl)-Nω-((2,2,4,6,7-pentamethyl-2,3-dihydrobenzofuran-5-yl)sulfonyl)-L-arginine]
Kd [1]: 1770 ± 100 nM

Structure (SMILES): N=C(N)NCCC[C@H](NC(=O)c1sccc1NS(=O)(=O)c1cccc2nsnc12)C(=O)O [EG00229, (S)-2-(3-(benzo[c][1,2,5]thiadiazole-4-sulfonamido)thiophene-2-carboxamido)-5-((diaminomethylene)amino)pentanoic acid]
IC50 [2]: 8 µM | reduction of migration (previously reported) [3]: ≈ 34%

Structure (SMILES): N=C(N)NCCC[C@H](NC(=O)c1sccc1NS(=O)(=O)c1cc(-c2ccccc2CNCc2ccccn2)cc2c1OCC2)C(=O)O [9e, Nω-((2,2,4,6,7-Pentamethyl-2,3-dihydrobenzofuran-5-yl)sulfonyl)-N2-(3-((5-(2-(((pyridin-2-ylmethyl)amino)methyl)phenyl)-2,3-dihydrobenzofuran)-7-sulfonamido)thiophene-2-carbonyl)-L-arginine]
Kd [1]: 680 ± 210 nM

Structure (SMILES): N=C(N)NCCC[C@H](NC(=O)c1sccc1NS(=O)(=O)c1cc(-c2cccc(CNCc3ncc[nH]3)c2)cc2c1OCC2)C(=O)O [10b, N2-(3-((5-(3-((((1H-Imidazol-2-yl)methyl)amino)methyl)phenyl)-2,3-dihydrobenzofuran)-7-sulfonamido)thiophene-2-carbonyl)-Nω-((2,2,4,6,7-pentamethyl-2,3-dihydrobenzofuran-5-yl)sulfonyl)-L-arginine]
Kd [1]: 840 ± 160 nM

Structure (SMILES): CN(C)Cc1cccc(-c2cc3c(c(S(=O)(=O)Nc4ccsc4C(=O)N[C@@H](CCCNC(=N)N)C(=O)O)c2)OCC3)c1 [compound 13, (3-((5-(3-((Dimethylamino)methyl)phenyl)-2,3-dihydrobenzofuran)-7-sulfonamido)thiophene-2-carbonyl)-L-arginine]
clearance and AUC compared with 1 ([4]; IV, in words): notably higher clearance and lower AUC than 1

Structure (SMILES): N=C(N)NCCC[C@H](NC(=O)c1sccc1NS(=O)(=O)c1cc(-c2ccccc2CNCc2cn[nH]c2)cc2c1OCC2)C(=O)O [9d, N2-(3-((5-(2-((((1H-Pyrazol-4-yl)methyl)amino)methyl)phenyl)-2,3-dihydrobenzofuran)-7-sulfonamido)thiophene-2-carbonyl)-Nω-((2,2,4,6,7-pentamethyl-2,3-dihydrobenzofuran-5-yl)sulfonyl)-L-arginine]
Kd [1]: 2140 ± 70 nM

Structure (SMILES): N=C(N)NCCC[C@H](NC(=O)c1sccc1NS(=O)(=O)c1cc(-c2ccccc2CNCc2cc[nH]n2)cc2c1OCC2)C(=O)O [9c, N2-(3-((5-(2-((((1H-Pyrazol-3-yl)methyl)amino)methyl)phenyl)-2,3-dihydrobenzofuran)-7-sulfonamido)thiophene-2-carbonyl)-Nω-((2,2,4,6,7-pentamethyl-2,3-dihydrobenzofuran-5-yl)sulfonyl)-L-arginine]
Kd [1]: 2100 ± 40 nM

Further lines, with some results ahead:

Kd [1]: 1450 ± 70 nM
Structure (SMILES): N=C(N)NCCC[C@H](NC(=O)c1sccc1NS(=O)(=O)c1cc(-c2cccc(CNCc3cc[nH]n3)c2)cc2c1OCC2)C(=O)O [10c, N2-(3-((5-(3-((((1H-Pyrazol-3-yl)methyl)amino)methyl)phenyl)-2,3-dihydrobenzofuran)-7-sulfonamido)thiophene-2-carbonyl)-Nω-((2,2,4,6,7-pentamethyl-2,3-dihydrobenzofuran-5-yl)sulfonyl)-L-arginine]

DU145/cells.Ad.NRP1, (HS) [8]: 0.9 | half-life ([4]; female, BABL/c, mouse, plasma, IV): 257 min | clearance ([4]; female, BABL/c, mouse, plasma, IV bolus 2 mg/kg): 14 mL/min/kg | binding to NRP2 by SPR [9]: no detectable NRP2 binding
Structure (SMILES): N=C(N)NCCC[C@H](NC(=O)c1sccc1NS(=O)(=O)c1cc(-c2ccc(CN)cc2)cc2c1OCC2)C(=O)O [compound 1, (3-((5-(4-(Aminomethyl)phenyl)-2,3-dihydrobenzofuran)-7-sulfonamido)thiophene-2-carbonyl)-L-arginine]
effect on GCM-induced production of TGFβ [5]: inhibited the GCM-induced production of TGFβ | effect on HUVEC migration, compound alone [6]: did not influence the migratory ability of these cells | effect on A375P spheroid invasion induced by VEGF-A ([7]; 30 μM + VEGF-A 25 ng/mL, 7 days): significantly inhibited invasion induced by VEGF-A | effect on A375P radial invasion, compound alone ([7]; 30 μM, compared to DMSO control): no significant effect on radial invasion | effect on VEGF-induced wound closure [10]: can delay the VEGF-induced wound closure

Kd [1]: 1430 ± 110 nM | t1/2 ([4]; IV bolus 2 mg/kg): 1.20 h | half-life ([4]; female, BABL/c (so in the source); BALB/c), mouse, plasma, IV): 72 min | AUC(0-inf) [4, 11]: 3140 ng·h/mL | Cmax [4, 11]: 2620 ng/mL | Tmax [4, 11]: 4.8 min | Vd [4, 11]: 1.1 L/kg | clearance [4, 11]: 18.4 mL/min/kg
Structure (SMILES): N=C(N)NCCC[C@H](NC(=O)c1sccc1NS(=O)(=O)c1cc(-c2cccc(CNCc3cn[nH]c3)c2)cc2c1OCC2)C(=O)O [10d, N2-(3-((5-(3-((((1H-Pyrazol-4-yl)methyl)amino)methyl)phenyl)-2,3-dihydrobenzofuran)-7-sulfonamido)thiophene-2-carbonyl)-Nω-((2,2,4,6,7-pentamethyl-2,3-dihydrobenzofuran-5-yl)sulfonyl)-L-arginine]

Kd [1]: 410 ± 90 nM
Structure (SMILES): N=C(N)NCCC[C@H](NC(=O)c1sccc1NS(=O)(=O)c1cc(-c2cccc(CNCc3ccccn3)c2)cc2c1OCC2)C(=O)O [10e, Nω-((2,2,4,6,7-Pentamethyl-2,3-dihydrobenzofuran-5-yl)sulfonyl)-N2-(3-((5-(3-(((pyridin-2-ylmethyl)amino)methyl)phenyl)-2,3-dihydrobenzofuran)-7-sulfonamido)thiophene-2-carbonyl)-L-arginine]
